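The compound was tested at five concentrations on cells cultured in 96-well plates, with a 48-hour exposure period. The concentration for 50% growth inhibition is given as GI50. Definition used: TGI = concentration required for complete inhibition of growth.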
Legend:
Assay in all cases: DTP human tumour cell line panel, 48 h
MOLT-4 leukemia = tested on: MOLT-4 leukemia
KM12 colon = tested on: KM12 colon
EKVX NSCLC = tested on: EKVX NSCLC
SF-268 CNS = tested on: SF-268 CNS
A549 NSCLC = tested on: A549 NSCLC
BT-549 breast = tested on: BT-549 breast
HL-60(TB) leukemia = tested on: HL-60(TB) leukemia
UACC-62 melanoma = tested on: UACC-62 melanoma
TK-10 renal = tested on: TK-10 renal
HCT-116 colon = tested on: HCT-116 colon
CAKI-1 renal = tested on: CAKI-1 renal
OVCAR-4 ovarian = tested on: OVCAR-4 ovarian
OVCAR-3 ovarian = tested on: OVCAR-3 ovarian
SF-295 CNS = tested on: SF-295 CNS
786-0 renal = tested on: 786-0 renal
OVCAR-8 ovarian = tested on: OVCAR-8 ovarian
ACHN renal = tested on: ACHN renal
M14 melanoma = tested on: M14 melanoma
NCI-H23 lung = tested on: NCI-H23 lung
HOP-62 NSCLC = tested on: HOP-62 NSCLC
CCRF-CEM leukemia = tested on: CCRF-CEM leukemia
SK-MEL-2 melanoma = tested on: SK-MEL-2 melanoma
SW-620 colon = tested on: SW-620 colon
T-47D breast = tested on: T-47D breast
HS 578T breast = tested on: HS 578T breast
MALME-3M melanoma = tested on: MALME-3M melanoma
NCI-H460 lung = tested on: NCI-H460 lung

Question: With `COc1ccc(N=Nc2c(N)nn3c(N)c(C#N)c(-c4ccccc4)nc23)cc1` as the molecule, how does the GI50 (MOLT-4 leukemia) read?
Answer: > 100 µM

Question: What about the TGI (MOLT-4 leukemia) of the same molecule?
Answer: > 100 µM

Question: And the GI50 (KM12 colon)?
Answer: > 100 µM

Question: What about the TGI (KM12 colon) of the same molecule?
Answer: > 100 µM

Question: And the GI50 (EKVX NSCLC)?
Answer: 8.82 µM

Question: And the TGI (EKVX NSCLC)?
Answer: > 100 µM

Question: What about the GI50 (SF-268 CNS) of the same molecule?
Answer: 5.88 µM

Question: What about the TGI (SF-268 CNS) of the same molecule?
Answer: > 100 µM

Question: What about the GI50 (A549 NSCLC) of the same molecule?
Answer: > 100 µM

Question: And the TGI (A549 NSCLC)?
Answer: > 100 µM

Question: What about the GI50 (BT-549 breast) of the same molecule?
Answer: 4.29 µM

Question: And the TGI (BT-549 breast)?
Answer: > 100 µM

Question: And the GI50 (HL-60(TB) leukemia)?
Answer: > 100 µM

Question: What about the TGI (HL-60(TB) leukemia) of the same molecule?
Answer: > 100 µM

Question: What about the GI50 (UACC-62 melanoma) of the same molecule?
Answer: 20.9 µM

Question: What about the TGI (UACC-62 melanoma) of the same molecule?
Answer: > 100 µM

Question: What about the GI50 (TK-10 renal) of the same molecule?
Answer: 5.88 µM

Question: And the TGI (TK-10 renal)?
Answer: > 100 µM

Question: And the GI50 (HCT-116 colon)?
Answer: > 100 µM

Question: And the TGI (HCT-116 colon)?
Answer: > 100 µM

Question: What about the GI50 (CAKI-1 renal) of the same molecule?
Answer: 4.58 µM

Question: And the TGI (CAKI-1 renal)?
Answer: > 100 µM

Question: And the GI50 (OVCAR-4 ovarian)?
Answer: 2780 nM

Question: And the TGI (OVCAR-4 ovarian)?
Answer: 29.3 µM

Question: And the GI50 (OVCAR-3 ovarian)?
Answer: 4.18 µM

Question: And the TGI (OVCAR-3 ovarian)?
Answer: > 100 µM

Question: What about the GI50 (SF-295 CNS) of the same molecule?
Answer: 4.03 µM

Question: What about the TGI (SF-295 CNS) of the same molecule?
Answer: > 100 µM

Question: What about the GI50 (786-0 renal) of the same molecule?
Answer: 12.8 µM

Question: And the TGI (786-0 renal)?
Answer: > 100 µM

Question: And the GI50 (OVCAR-8 ovarian)?
Answer: 4.61 µM

Question: And the TGI (OVCAR-8 ovarian)?
Answer: > 100 µM

Question: And the GI50 (ACHN renal)?
Answer: 4.08 µM

Question: What about the TGI (ACHN renal) of the same molecule?
Answer: > 100 µM

Question: And the GI50 (M14 melanoma)?
Answer: > 100 µM

Question: And the TGI (M14 melanoma)?
Answer: > 100 µM

Question: What about the GI50 (NCI-H23 lung) of the same molecule?
Answer: 5.05 µM

Question: And the TGI (NCI-H23 lung)?
Answer: > 100 µM

Question: What about the GI50 (HOP-62 NSCLC) of the same molecule?
Answer: 3.7 µM

Question: And the TGI (HOP-62 NSCLC)?
Answer: 41.5 µM

Question: And the GI50 (CCRF-CEM leukemia)?
Answer: > 100 µM

Question: What about the TGI (CCRF-CEM leukemia) of the same molecule?
Answer: > 100 µM

Question: What about the GI50 (SK-MEL-2 melanoma) of the same molecule?
Answer: 16.6 µM

Question: What about the TGI (SK-MEL-2 melanoma) of the same molecule?
Answer: > 100 µM

Question: What about the GI50 (SW-620 colon) of the same molecule?
Answer: > 100 µM

Question: What about the TGI (SW-620 colon) of the same molecule?
Answer: > 100 µM

Question: And the GI50 (T-47D breast)?
Answer: 2750 nM

Question: And the TGI (T-47D breast)?
Answer: > 100 µM

Question: What about the GI50 (HS 578T breast) of the same molecule?
Answer: 3 µM

Question: What about the TGI (HS 578T breast) of the same molecule?
Answer: 65 µM

Question: And the GI50 (MALME-3M melanoma)?
Answer: 5.46 µM

Question: And the TGI (MALME-3M melanoma)?
Answer: > 100 µM

Question: And the GI50 (NCI-H460 lung)?
Answer: 4.06 µM

Reference: PubChem BioAssay (NCI)
